Reference: PMC8907714, “Antimicrobial property of Pichia pastoris‐derived natto peptide against foodborne bacteria and its preservative potential to maintain pork quality during refrigerated storage” (Food Science & Nutrition, 2022)

Experiments:
[1] = test system: total bacteria, Staphylococcus spp., Escherichia spp., and Pseudomonas spp.; test: Microbial growth in pork during refrigerated storage, colony count; settings: pork soaked 20 min, natto peptide 30, 60, 90 μg/ml, nisin 50 μg/ml, butyl paraben 100 μg/ml, 4°C, 8‐day storage
Method: Fresh‐pork legs were bought from a local butcher (Binzhou, China) 24 h postmortem. The connective tissue and fat of the pork were removed before cutting into even slices (5 ± 0.1 g). Afterwards, the slices were soaked in 0, 30, 60, and 90 μg/ml of natto peptide for 20 min. Then, the slices were drained and placed in sterilized polyvinyl chloride trays, sealed using a polyethylene film, and stored at 4°C in a refrigerator for 8 days. Meanwhile, 50 μg/ml of nisin and 100 μg/ml of butyl paraben were used as positive controls to analyze the aseptic effects of natto peptide, including microbial growth, TVB‐N, lipid oxidation, pH, drip loss, and sensory quality during storage.
The microbial growth of pork was determined by colony count, as described previously (Meng et al., [2021]). In brief, after the pork sample (5 g) was homogenized with 0.9% sterilized saline buffer (25 ml), 100 μl of the 10× diluent was spread on plate‐count agar, mannitol‐salt agar, violet red bile agar, and centrimide (CN) agar, and incubated at a suitable temperature for 48 h. All experiments were performed three times.

E. coli O157 = test: Time‐killing curve; assay type: cell-based, Escherichia coli; settings: gentamicin positive control, concentration not given
Method: Time‐killing curves were obtained as described previously to evaluate the bactericidal rates of natto peptide (Dong & Sun, [2021]). Concisely, the natto peptide at final concentrations of 1×, 2×, and 4× MICs was incubated with E. coli O157, which was cultured to midlog phase. Then, the culture samples were harvested at different time intervals for colony counting. PBS buffer and gentamicin were used as negative and positive controls. All the experiments were performed in triplicate.

Molecule	bacterial growth in pork compared with control [1]	time until bacteria were completely killed (E. coli O157) [h]
CCCCOC(=O)c1ccc(O)cc1 [Butyl paraben]	effective inhibition function	–
CNC(C)C1CCC(N)C(OC2C(N)CC(N)C(OC3OCC(C)(O)C(NC)C3O)C2O)O1 (stereo not drawn) [gentamicin]	–	1.5
Nisin	moderate inhibitory effect	–
